In the supplement of paper PMC10627819:
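Note: first quartile when negative (synergy) and third quartile when positive (antagonism).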

These compounds were tested on S. aureus DSM 20231 (assay: Bliss interaction score (quartile over a dose matrix) (fitness difference); higher = more antagonism (negative = synergy)). Settings: not given.
Method in brief: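 At entry into stationary phase, OD595 was recorded and divided by the robust mean of the no-drug wells on that plate, with any value above 1 set to 1. This gives the fitness measure used throughout. Single-drug fitness was inferred from combination data, and the Bliss score, observed minus product-expected fitness, is shown as quartiles across technical, biological and donor/recipient replicates.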
With `CCc1oc2ccccc2c1C(=O)c1cc(Br)c(O)c(Br)c1` [Benzbromarone] + O=C(O[C@@H]1Cc2c(O)cc(O)cc2O[C@@H]1c1cc(O)c(O)c(O)c1)c1cc(O)c(O)c(O)c1 [EGCG] the Bliss interaction score was -0.139. Work on `CCC[C@@H]1C[C@@H](C(=O)N[C@@H]([C@H]2O[C@H](SC)[C@H](O)[C@@H](O)[C@H]2O)[C@@H](C)O)N(C)C1` [Lincomycin] + O=C(O)Cc1cc(I)c(Oc2ccc(O)c(I)c2)c(I)c1 [Tiratricol] yielded a Bliss interaction score of 0.233. Work on `CC[C@H]1OC(=O)[C@H](C)[C@@H](O[C@H]2C[C@@](C)(OC)[C@@H](O)[C@H](C)O2)[C@H](C)[C@@H](O[C@@H]2O[C@H](C)C[C@H](N(C)C)[C@H]2O)[C@](C)(OC)C[C@@H](C)C(=O)[C@H](C)[C@@H](O)[C@]1(C)O` [Clarithromycin] + CN1CCC[C@H]1c1cccnc1 [Nicotine] yielded a Bliss interaction score of -0.223. For `CCC[C@@H]1C[C@@H](C(=O)N[C@@H]([C@H]2O[C@H](SC)[C@H](O)[C@@H](O)[C@H]2O)[C@H](C)Cl)N(C)C1` [Clindamycin] + Nc1ccc(O)c(C(=O)O)c1 [Mesalamine], the Bliss interaction score was -0.165. With `CCC[C@@H]1C[C@@H](C(=O)N[C@@H]([C@H]2O[C@H](SC)[C@H](O)[C@@H](O)[C@H]2O)[C@@H](C)O)N(C)C1` [Lincomycin] + Cc1c(C)c2c(c(C)c1O)CCC(C)(COc1ccc(CC3SC(=O)NC3=O)cc1)O2 [Troglitazone] the Bliss interaction score was 0.222. Work on `CCC[C@@H]1C[C@@H](C(=O)N[C@@H]([C@H]2O[C@H](SC)[C@H](O)[C@@H](O)[C@H]2O)[C@H](C)Cl)N(C)C1` [Clindamycin] + C[C@H]1C[C@@H]2[C@H]([C@@H](O)C[C@@]3(C)[C@H]2CC[C@]3(O)C(=O)CO)[C@@]2(C)C=CC(=O)C=C12 [Methylprednisolone] yielded a Bliss interaction score of -0.274. For `CCC[C@@H]1C[C@@H](C(=O)N[C@@H]([C@H]2O[C@H](SC)[C@H](O)[C@@H](O)[C@H]2O)[C@@H](C)O)N(C)C1` [Lincomycin] + C[C@H]1C[C@@H]2[C@H]([C@@H](O)C[C@@]3(C)[C@H]2CC[C@]3(O)C(=O)CO)[C@@]2(C)C=CC(=O)C=C12 [Methylprednisolone], the Bliss interaction score was -0.248. `CC[C@H]1OC(=O)[C@H](C)[C@@H](O[C@H]2C[C@@](C)(OC)[C@@H](O)[C@H](C)O2)[C@H](C)[C@@H](O[C@@H]2O[C@H](C)C[C@H](N(C)C)[C@H]2O)[C@](C)(OC)C[C@@H](C)C(=O)[C@H](C)[C@@H](O)[C@]1(C)O` [Clarithromycin] + C[C@H]1C[C@@H]2[C@H]([C@@H](O)C[C@@]3(C)[C@H]2CC[C@]3(O)C(=O)CO)[C@@]2(C)C=CC(=O)C=C12 [Methylprednisolone] gave a Bliss interaction score of -0.275. In the case of `O=C1CN(/N=C/c2ccc([N+](=O)[O-])o2)C(=O)N1` [Nitrofurantoin] + CCCSc1nc(N[C@@H]2C[C@H]2c2ccc(F)c(F)c2)c2nnn([C@@H]3C[C@H](OCCO)[C@@H](O)[C@H]3O)c2n1 [Ticagrelor], the Bliss interaction score is reported as -0.277. `CC(=O)OC[C@H]1O[C@@H]([S-])[C@H](OC(C)=O)[C@@H](OC(C)=O)[C@@H]1OC(C)=O.CCP(CC)CC.[Au+]` [Auranofin] + C[C@H]1C[C@@H]2[C@H]([C@@H](O)C[C@@]3(C)[C@H]2CC[C@]3(O)C(=O)CO)[C@@]2(C)C=CC(=O)C=C12 [Methylprednisolone] gave a Bliss interaction score of 0.162. `CC[C@H]1OC(=O)[C@H](C)[C@@H](O[C@H]2C[C@@](C)(OC)[C@@H](O)[C@H](C)O2)[C@H](C)[C@@H](O[C@@H]2O[C@H](C)C[C@H](N(C)C)[C@H]2O)[C@](C)(OC)C[C@@H](C)C(=O)[C@H](C)[C@@H](O)[C@]1(C)O` [Clarithromycin] + Cc1c(Cl)cccc1Nc1ccccc1C(=O)O [Tolfenamic] showed a Bliss interaction score of -0.245. Compound `N[C@@H]1CONC1=O` [CycloserineD] + Cc1c(Cl)cccc1Nc1ccccc1C(=O)O [Tolfenamic] has a Bliss interaction score of -0.218. For `CCc1oc2ccccc2c1C(=O)c1cc(Br)c(O)c(Br)c1` [Benzbromarone] + N[C@@H]1CONC1=O [CycloserineD], the Bliss interaction score was -0.109. Work on `CCC[C@@H]1C[C@@H](C(=O)N[C@@H]([C@H]2O[C@H](SC)[C@H](O)[C@@H](O)[C@H]2O)[C@H](C)Cl)N(C)C1` [Clindamycin] + Cc1ccc(C(C)C)c(O)c1 [Thymol] yielded a Bliss interaction score of -0.271. `CCC[C@@H]1C[C@@H](C(=O)N[C@@H]([C@H]2O[C@H](SC)[C@H](O)[C@@H](O)[C@H]2O)[C@@H](C)O)N(C)C1` [Lincomycin] + Cc1c(Cl)cccc1Nc1ccccc1C(=O)O [Tolfenamic] gave a Bliss interaction score of -0.244. Work on `N[C@@H]1CONC1=O` [CycloserineD] + O=C(O)c1cc(-c2ccc(F)cc2F)ccc1O [Diflunisal] yielded a Bliss interaction score of -0.151. For `CCC[C@@H]1C[C@@H](C(=O)N[C@@H]([C@H]2O[C@H](SC)[C@H](O)[C@@H](O)[C@H]2O)[C@@H](C)O)N(C)C1` [Lincomycin] + CCCSc1nc(N[C@@H]2C[C@H]2c2ccc(F)c(F)c2)c2nnn([C@@H]3C[C@H](OCCO)[C@@H](O)[C@H]3O)c2n1 [Ticagrelor], the Bliss interaction score was -0.385. With `CCN(CC)CCOc1ccc(C(=C(Cl)c2ccccc2)c2ccccc2)cc1` [Clomiphene] + Cn1nnc(-c2ccc(-c3ccc(N4C[C@H](CO)OC4=O)cc3F)cn2)n1 [Tedizolid] the Bliss interaction score was 0.263. In the case of `CCN(CC)CCOc1ccc(C(=C(Cl)c2ccccc2)c2ccccc2)cc1` [Clomiphene] + N[C@@H]1CONC1=O [CycloserineD], the Bliss interaction score is reported as -0.175. In the case of `CC(=O)O[C@H]1C[C@@]2(C)[C@@H](C[C@@H](O)[C@H]3[C@@]4(C)CC[C@@H](O)[C@@H](C)[C@@H]4CC[C@@]32C)/C1=C(\CCC=C(C)C)C(=O)O` [Fusidic acid] + Cc1c(Cl)cccc1Nc1ccccc1C(=O)O [Tolfenamic], the Bliss interaction score is reported as 0.16. For `CC(=O)O[C@H]1C[C@@]2(C)[C@@H](C[C@@H](O)[C@H]3[C@@]4(C)CC[C@@H](O)[C@@H](C)[C@@H]4CC[C@@]32C)/C1=C(\CCC=C(C)C)C(=O)O` [Fusidic acid] + C[C@H]1C[C@@H]2[C@H]([C@@H](O)C[C@@]3(C)[C@H]2CC[C@]3(O)C(=O)CO)[C@@]2(C)C=CC(=O)C=C12 [Methylprednisolone], the Bliss interaction score was -0.127. For `O=C1CN(/N=C/c2ccc([N+](=O)[O-])o2)C(=O)N1` [Nitrofurantoin] + CCCc1nc2c(C)cc(-c3nc4ccccc4n3C)cc2n1Cc1ccc(-c2ccccc2C(=O)O)cc1 [Telmisartan], the Bliss interaction score was -0.216. With `CC(=O)O[C@H]1C[C@@]2(C)[C@@H](C[C@@H](O)[C@H]3[C@@]4(C)CC[C@@H](O)[C@@H](C)[C@@H]4CC[C@@]32C)/C1=C(\CCC=C(C)C)C(=O)O` [Fusidic acid] + CC(C)(O)c1ccccc1CC[C@@H](SCC1(CC(=O)O)CC1)c1cccc(/C=C/c2ccc3ccc(Cl)cc3n2)c1 [Montelukast] the Bliss interaction score was -0.241. In the case of `CCC[C@@H]1C[C@@H](C(=O)N[C@@H]([C@H]2O[C@H](SC)[C@H](O)[C@@H](O)[C@H]2O)[C@H](C)Cl)N(C)C1` [Clindamycin] + Cc1c(Cl)cccc1Nc1ccccc1C(=O)O [Tolfenamic], the Bliss interaction score is reported as -0.169. In the case of `CCC[C@@H]1C[C@@H](C(=O)N[C@@H]([C@H]2O[C@H](SC)[C@H](O)[C@@H](O)[C@H]2O)[C@@H](C)O)N(C)C1` [Lincomycin] + Cc1cccc(CN2CCN(C(c3ccccc3)c3ccc(Cl)cc3)CC2)c1 [Meclizine], the Bliss interaction score is reported as 0.278. `O=C(N[C@H](CO)[C@H](O)c1ccc([N+](=O)[O-])cc1)C(Cl)Cl` [Chloramphenicol] + C[C@H]1C[C@@H]2[C@H]([C@@H](O)C[C@@]3(C)[C@H]2CC[C@]3(O)C(=O)CO)[C@@]2(C)C=CC(=O)C=C12 [Methylprednisolone] showed a Bliss interaction score of -0.204. `CC[C@H]1OC(=O)[C@H](C)[C@@H](O[C@H]2C[C@@](C)(OC)[C@@H](O)[C@H](C)O2)[C@H](C)[C@@H](O[C@@H]2O[C@H](C)C[C@H](N(C)C)[C@H]2O)[C@](C)(OC)C[C@@H](C)C(=O)[C@H](C)[C@@H](O)[C@]1(C)O` [Clarithromycin] + CC(C)Cc1ccc(C(C)C(=O)O)cc1 [Ibuprofen] showed a Bliss interaction score of -0.171. `CCC[C@@H]1C[C@@H](C(=O)N[C@@H]([C@H]2O[C@H](SC)[C@H](O)[C@@H](O)[C@H]2O)[C@@H](C)O)N(C)C1` [Lincomycin] + CC(C)(O)c1ccccc1CC[C@@H](SCC1(CC(=O)O)CC1)c1cccc(/C=C/c2ccc3ccc(Cl)cc3n2)c1 [Montelukast] showed a Bliss interaction score of -0.268. With `CCN(CC)CCOc1ccc(C(=C(Cl)c2ccccc2)c2ccccc2)cc1` [Clomiphene] + COc1cc(Cc2cnc(N)nc2N)cc(OC)c1OC [Trimethoprim] the Bliss interaction score was 0.216. Compound `O=C(N[C@H](CO)[C@H](O)c1ccc([N+](=O)[O-])cc1)C(Cl)Cl` [Chloramphenicol] + CCCSc1nc(N[C@@H]2C[C@H]2c2ccc(F)c(F)c2)c2nnn([C@@H]3C[C@H](OCCO)[C@@H](O)[C@H]3O)c2n1 [Ticagrelor] has a Bliss interaction score of -0.239. Work on `CC[C@H]1OC(=O)[C@H](C)[C@@H](O[C@H]2C[C@@](C)(OC)[C@@H](O)[C@H](C)O2)[C@H](C)[C@@H](O[C@@H]2O[C@H](C)C[C@H](N(C)C)[C@H]2O)[C@](C)(OC)C[C@@H](C)C(=O)[C@H](C)[C@@H](O)[C@]1(C)O` [Clarithromycin] + O=C(O)Cc1cc(I)c(Oc2ccc(O)c(I)c2)c(I)c1 [Tiratricol] yielded a Bliss interaction score of 0.192. With `COc1c(N2C[C@@H]3CCCN[C@@H]3C2)c(F)cc2c(=O)c(C(=O)O)cn(C3CC3)c12` [Moxifloxacin] + Cc1c(Cl)cccc1Nc1ccccc1C(=O)O [Tolfenamic] the Bliss interaction score was -0.12. `CCC[C@@H]1C[C@@H](C(=O)N[C@@H]([C@H]2O[C@H](SC)[C@H](O)[C@@H](O)[C@H]2O)[C@H](C)Cl)N(C)C1` [Clindamycin] + O=C(O)Cc1cc(I)c(Oc2ccc(O)c(I)c2)c(I)c1 [Tiratricol] gave a Bliss interaction score of 0.278.

Same assay, conditions: main component drawn
`CCc1oc2ccccc2c1C(=O)c1cc(Br)c(O)c(Br)c1` [Benzbromarone] + CC(C1CCC(C(O1)OC2C(CC(C(C2O)OC3C(C(C(CO3)(C)O)NC)O)N)N)N)NC [Gentamicin] showed a Bliss interaction score of 0.189. `CCN(CC)CCOc1ccc(C(=C(Cl)c2ccccc2)c2ccccc2)cc1` [Clomiphene] + CCC(C)C1C(=O)NC(=C)C(=O)NC(C(=O)NC(CSCC(C(=O)N1)NC(=O)/C(=C/C)/NC(=O)C(C(C)CC)N)C(=O)NC2C(SCC(NC(=O)CNC(=O)C3CCCN3C2=O)C(=O)NC(CCCCN)C(=O)NC4C(SCC(NC(=O)CNC(=O)C(NC(=O)C(NC(=O)C(NC(=O)CNC4=O)C)CC(C)C)CCSC)C(=O)NC(CC(=O)N)C(=O)NC(CCSC)C(=O)NC(CCCCN)C(=O)NC5C(SCC6C(=O)NC(C(=O)NC(CSC(C(C(=O)N6)NC(=O)C(NC5=O)C)C)C(=O)NC(CO)C(=O)NC(C(C)CC)C(=O)NC(CC7=CN=CN7)C(=O)NC(C(C)C)C(=O)NC(=C)C(=O)NC(CCCCN)C(=O)O)CC8=CN=CN8)C)C)C)CC(C)C [Nisin] gave a Bliss interaction score of -0.384.
